We go through 3 molecules from PMC10601554 (Protein Science : A Publication of the Protein Society, 2023).

Data set [1] deals with RBP‐N/RBP‐Trunc mixed heterodimer (first generation) (Thermotoga maritima) (UniProt Q9X053). Nature of the data set: SEC-MALS; single purified proteins, and RBP‐N and RBP‐Trunc purified one by one and mixed in an equimolar ratio; Superdex 75 Increase 10/300 GL, 10 mM sodium phosphate, 50 mM sodium chloride, 0.02% sodium azide, pH 7.8, room temperature, 0.8 mL min^-1. On the technique in general: SEC sorts molecules by how far they enter the pores of the column.

In data set [2] the target is T1, RBP-N/RBP-Trunc mixed heterodimer (Thermotoga maritima, UniProt Q9X053).
T1 construct: gene TM_0958; separately expressed halves mixed equimolar in vitro; E. coli BL21(DE3); His tag likely; dimer of heterodimers
Nature of the data set: isothermal titration calorimetry. The class given is binding. The note with it: 10 mM sodium phosphate, 50 mM NaCl, pH 7.8, 20°C; 100 μM protein; 1:1 model. In general terms: ITC needs no label: the signal is the heat of the interaction.

In data set [3] the target is T2, RBP-NN-His/RBP-CN-Strep co-expressed heterodimer (Thermotoga maritima, UniProt Q9X053).
T2 construct: gene TM_0958; halves co-expressed in E. coli BL21(DE3); N-terminal His6 tag on RBP-N (border also printed as 153), N-terminal Strep-tag on RBP-C; lacks C-terminal cross-over strands; oligomeric state not determined
Put plainly: differential scanning calorimetry. To be noted: 10 mM sodium phosphate, 50 mM NaCl, pH 7.8; 50 μM protein, 0.5 mM ribose; irreversible unfolding. The class given is binding. A general note: DSC measures the heat that a sample takes up or gives off during a temperature scan.

The target of data set [4] is T3, RBP-NN-His/RBP-TruncIIN-Strep co-expressed heterodimer (Thermotoga maritima, UniProt Q9X053).
T3 construct: gene TM_0958; halves co-expressed in E. coli BL21(DE3); N-terminal His6 tag on RBP-N (border also printed as 153), N-terminal Strep-tag on RBP-TruncII
Nature of the data set: differential scanning calorimetry. The class given is binding. The note with it: 10 mM sodium phosphate, 50 mM NaCl, pH 7.8; 50 μM protein, 0.5 mM ribose; irreversible unfolding; possible residual ribose carried over.

The target in data set [5] is T1, RBP-N/RBP-Trunc mixed heterodimer. Nature of the data set: differential scanning calorimetry. The class given is binding. To be noted: 10 mM sodium phosphate, 50 mM NaCl, pH 7.8; 50 μM protein, 0.5 mM ribose; irreversible unfolding.
Data set [6] concerns the molecule itself. Put plainly: SEC-MALS; single purified proteins, and RBP‐N and RBP‐Trunc purified one by one and mixed in an equimolar ratio; Superdex 75 Increase 10/300 GL, 10 mM sodium phosphate, 50 mM sodium chloride, 0.02% sodium azide, pH 7.8, room temperature, 0.8 mL min^-1.

T1 sequence (Q9X053 entry or part of it, one chain of several): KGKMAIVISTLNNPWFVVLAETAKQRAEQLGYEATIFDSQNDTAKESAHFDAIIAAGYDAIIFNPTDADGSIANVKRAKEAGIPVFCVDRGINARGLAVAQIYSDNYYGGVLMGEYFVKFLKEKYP
T2 sequence (Q9X053 entry or part of it, one chain of several): as above
T3 sequence (Q9X053 entry or part of it, one chain of several): as above

In general, stoichiometry N refers to the number of molecules, sites or subunits per partner or assembly. As to “RBP‐N/RBP‐Trunc mixed heterodimer (first generation) (from UniProt Q9X053 30-153; Q9X053 142-310) (complex)”, in data set [1], the stoichiometry N amounted to 2.

Broadly, the Kd is a measure of binding affinity in units of concentration. Regarding `OC1OC[C@@H](O)[C@@H](O)[C@H]1O` (stereo partly drawn) [ribose], in data set [2], the Kd was found to be 6.8 ± 0.7 µM. For the same molecule, the dTm in data set [3] is 15.1 °C; in data set [4], 9.1 °C; in data set [5], ~ 14 °C.

B1: RBP‐Trunc (truncated T. maritima RBP, residues 142–310, first generation) (domain or fragment, Thermotoga maritima, UniProt Q9X053 142-310, looked up)
chain: MGEYFVKFLKEKYPDAKEIPYAELLGILSAQPTWDRSNGFHSVVDQYPEFKMVAQQSAEFDRDTAYKVTEQILQAHPEIKAIWCGNDAMALGAMKACEAAGRTDIYIFGFDGAEDVINAIKEGKQIVATIMQFPKLMARLAVEWADQYLRGERSFPEIVPVTVELVTRE
notes: also called RPB‐Trunc
For the molecule B1, in data set [6], the “stoichiometry N” value was 2.
